The target of data set [1] is T1, Prostaglandin G/H synthase 1 (Ovis aries, UniProt P05979).
T1 sequence (P05979 whole entry): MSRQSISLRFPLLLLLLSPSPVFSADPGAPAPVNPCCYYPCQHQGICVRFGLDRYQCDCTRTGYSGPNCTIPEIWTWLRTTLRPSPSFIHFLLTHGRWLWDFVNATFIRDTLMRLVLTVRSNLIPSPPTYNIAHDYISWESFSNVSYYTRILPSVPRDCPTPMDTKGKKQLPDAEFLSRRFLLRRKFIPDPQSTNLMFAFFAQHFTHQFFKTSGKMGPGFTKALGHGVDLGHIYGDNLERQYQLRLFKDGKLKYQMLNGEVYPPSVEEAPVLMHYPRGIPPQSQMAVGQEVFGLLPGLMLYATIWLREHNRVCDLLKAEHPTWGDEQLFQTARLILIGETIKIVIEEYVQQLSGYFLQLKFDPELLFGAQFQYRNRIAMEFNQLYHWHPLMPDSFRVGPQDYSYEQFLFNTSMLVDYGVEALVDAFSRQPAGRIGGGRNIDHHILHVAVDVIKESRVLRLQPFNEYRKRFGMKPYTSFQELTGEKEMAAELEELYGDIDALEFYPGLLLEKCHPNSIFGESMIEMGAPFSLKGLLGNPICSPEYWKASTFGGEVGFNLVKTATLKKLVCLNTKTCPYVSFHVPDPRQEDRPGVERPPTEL

Data set [2] deals with T2, Prostaglandin G/H synthase 2 (Mus musculus, UniProt Q05769).
T2 sequence (Q05769 whole entry): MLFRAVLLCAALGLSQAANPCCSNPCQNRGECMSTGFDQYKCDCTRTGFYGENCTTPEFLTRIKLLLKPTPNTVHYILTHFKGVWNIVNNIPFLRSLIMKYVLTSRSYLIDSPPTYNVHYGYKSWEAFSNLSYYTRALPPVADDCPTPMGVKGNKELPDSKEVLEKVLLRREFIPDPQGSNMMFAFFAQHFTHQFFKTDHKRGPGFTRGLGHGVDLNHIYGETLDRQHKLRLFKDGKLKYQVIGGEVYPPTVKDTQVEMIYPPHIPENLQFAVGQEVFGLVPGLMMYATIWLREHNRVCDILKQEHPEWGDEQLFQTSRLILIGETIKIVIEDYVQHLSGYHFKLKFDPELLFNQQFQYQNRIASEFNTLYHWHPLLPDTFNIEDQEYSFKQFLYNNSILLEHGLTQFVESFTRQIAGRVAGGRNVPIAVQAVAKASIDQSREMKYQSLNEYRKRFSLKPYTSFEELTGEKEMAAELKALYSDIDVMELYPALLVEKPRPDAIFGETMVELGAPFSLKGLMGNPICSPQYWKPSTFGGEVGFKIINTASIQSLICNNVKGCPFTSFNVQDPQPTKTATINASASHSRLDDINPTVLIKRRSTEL

The subject of data set [3] is HEK293. The data set can be described thus: cells. To be noted: Homo sapiens, HEK293, 72 h.
The test system of data set [4] is Raji. Kind of data set: cells. The note with it: Homo sapiens, 72 h.
The nature of data set [5]: Half life in stimulated gastric fluid of pH 1.0. The note with it: simulated gastric fluid.
In data set [6] the target is Prostaglandin G/H synthase 1 (Homo sapiens) (UniProt P23219). The data set can be described thus: Inhibition of human COX1.
The target of data set [7] is T3, Prostaglandin G/H synthase 2 (Homo sapiens) (UniProt P35354).
T3 sequence (whole entry): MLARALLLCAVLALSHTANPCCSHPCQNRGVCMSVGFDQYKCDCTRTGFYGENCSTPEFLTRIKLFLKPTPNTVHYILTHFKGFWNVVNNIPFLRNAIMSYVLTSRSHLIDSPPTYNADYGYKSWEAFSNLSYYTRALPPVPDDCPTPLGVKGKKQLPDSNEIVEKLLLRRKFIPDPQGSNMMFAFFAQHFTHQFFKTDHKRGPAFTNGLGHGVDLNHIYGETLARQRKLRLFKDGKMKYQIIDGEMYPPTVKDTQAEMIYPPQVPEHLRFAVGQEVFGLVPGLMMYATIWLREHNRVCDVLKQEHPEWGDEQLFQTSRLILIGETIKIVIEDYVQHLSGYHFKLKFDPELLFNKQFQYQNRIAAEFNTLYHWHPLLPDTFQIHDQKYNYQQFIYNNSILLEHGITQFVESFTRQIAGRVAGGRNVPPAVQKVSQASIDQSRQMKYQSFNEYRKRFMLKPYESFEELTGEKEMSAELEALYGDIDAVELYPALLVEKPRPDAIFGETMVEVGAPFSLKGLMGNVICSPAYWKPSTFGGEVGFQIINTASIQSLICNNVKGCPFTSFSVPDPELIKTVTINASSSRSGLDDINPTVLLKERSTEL
The data set can be described thus: Inhibition of human COX2.

The test system of data set [8] is Trypanosoma brucei brucei. The data set can be described thus: microbe, parasite or virus in culture. To be noted: 48 h.
Data set [9] relates to Trypanosoma brucei brucei. The note with it: 1 uM.
For data set [10], the system named is Trypanosoma brucei brucei. The note with it: 100 nM.
Data set [11] has as its system Trypanosoma brucei brucei. To be noted: 1 uM. The source holds these as a separate data set.
The subject of data set [12] is Trypanosoma brucei brucei. The note with it: 100 nM. The source holds these as a separate data set.

Activity calls are given as the source filed them.

Sequence of Prostaglandin G/H synthase 1 (Homo sapiens) (P23219 whole entry): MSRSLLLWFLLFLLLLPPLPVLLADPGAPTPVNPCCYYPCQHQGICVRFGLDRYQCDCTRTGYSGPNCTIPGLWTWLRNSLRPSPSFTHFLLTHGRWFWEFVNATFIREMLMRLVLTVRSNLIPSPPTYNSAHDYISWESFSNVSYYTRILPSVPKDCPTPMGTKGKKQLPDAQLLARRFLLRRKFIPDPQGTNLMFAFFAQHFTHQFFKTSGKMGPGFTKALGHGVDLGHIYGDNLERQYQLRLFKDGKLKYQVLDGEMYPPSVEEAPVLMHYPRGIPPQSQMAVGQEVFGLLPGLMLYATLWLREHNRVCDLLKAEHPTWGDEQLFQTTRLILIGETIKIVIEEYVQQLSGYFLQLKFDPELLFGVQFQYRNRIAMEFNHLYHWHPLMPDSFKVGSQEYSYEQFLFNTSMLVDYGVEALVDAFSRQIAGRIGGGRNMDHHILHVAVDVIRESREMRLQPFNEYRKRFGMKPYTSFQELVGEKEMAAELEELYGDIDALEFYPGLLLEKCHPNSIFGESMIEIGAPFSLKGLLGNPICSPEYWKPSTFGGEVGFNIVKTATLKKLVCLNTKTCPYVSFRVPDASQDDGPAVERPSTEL

The term IC50 denotes the concentration that gives 50% inhibition. The half-life is the time needed for the level to fall by half in the phase considered. The low end stands for fast loss, the high end for slow loss. In the case of `COc1cc([C@H]2c3cc4c(cc3[C@@H](OC(=O)CCC(=O)NCCCCNC(=O)[C@@H](C)c3ccc(CC(C)C)cc3)[C@@H]3COC(=O)[C@@H]23)OCO4)cc(OC)c1OC`, the IC50 in data set [1] is more than 4 µM; in [2] it was more than 4 µM; in data set [3], 0.16 µM; in data set [4], 0.17 µM. In [5], this molecule came in with a half-life of more than 24 h.
As for `COc1ccc2c(c1)c(CC(=O)NCCCCCNC(=O)CCC(=O)O[C@@H]1c3cc4c(cc3[C@H](c3cc(OC)c(OC)c(OC)c3)[C@@H]3C(=O)OC[C@H]31)OCO4)c(C)n2C(=O)c1ccc(Cl)cc1`, the IC50 in [1] is more than 4 µM; in [4] it was 0.28 µM. Moreover, the inhibition result in data set [6] and in data set [7] was “inactive” in each case. Moreover, the half-life in data set [5] was more than 24 h.
Regarding `COc1cc([C@H]2c3cc4c(cc3[C@@H](OC(=O)CCC(=O)NCc3ccc(NS(=O)(=O)c5cccc6c(N(C)C)cccc56)cc3)[C@@H]3COC(=O)[C@@H]23)OCO4)cc(OC)c1OC`, the IC50 in data set [1] is more than 4 µM; in [2], more than 4 µM; in [4], 0.037 µM. Moreover, the half-life in [5] was more than 24 h.
In the case of `COc1cc([C@@H]2c3cc4c(cc3[C@H](OC(=O)CCC(=O)O)[C@H]3COC(=O)[C@H]23)OCO4)cc(OC)c1OC` [SUCCINYLPODOPHYLLOTOXIN], the IC50 is more than 4 µM in [1], more than 4 µM in [2], 0.076 µM in data set [3] and 0.1 µM in data set [4]. The molecule further yielded a half-life in data set [5] of more than 24 h.
Turning to `COc1cc([C@H]2c3cc4c(cc3[C@@H](OC(=O)CCC(=O)NC[C@H](C)c3ccccc3)[C@@H]3COC(=O)[C@@H]23)OCO4)cc(OC)c1OC`, the IC50 in [1] is more than 4 µM; in data set [2], more than 4 µM; in data set [3], 0.36 µM; in data set [4], 0.54 µM. In data set [5], the half-life was more than 24 h.
As to `COc1ccc2c(c1)c(CC(=O)N1CCN(C(=O)CCC(=O)O[C@@H]3c4cc5c(cc4[C@H](c4cc(OC)c(OC)c(OC)c4)[C@@H]4C(=O)OC[C@H]43)OCO5)CC1)c(C)n2C(=O)c1ccc(Cl)cc1`, the IC50 in [3] worked out at 0.52 µM; in [4], 0.51 µM. For the same molecule, the inhibition result in [6] and in data set [7] was “inactive” each time. The same molecule gave a half-life in data set [5] of more than 24 h.
Regarding `COc1cc([C@H]2c3cc4c(cc3[C@@H](OC(=O)CCC(=O)NCCCCNC(=O)[C@@H](C)c3cccc(C(=O)c5ccccc5)c3)[C@@H]3COC(=O)[C@@H]23)OCO4)cc(OC)c1OC`, the half-inhibitory concentration (IC50) in data set [1] is more than 4 µM; in data set [2] it was more than 4 µM; in data set [3], more than 50 µM; in data set [4], more than 50 µM. In data set [5], this molecule had a half-life of more than 24 h.
Turning to `COc1ccc2c(c1)c(CCNC(=O)CCC(=O)O[C@@H]1c3cc4c(cc3[C@H](c3cc(OC)c(OC)c(OC)c3)[C@@H]3C(=O)OC[C@H]31)OCO4)c(C)n2Cc1ccc(Br)cc1`, the IC50 in [1] was more than 4 µM; in data set [2], more than 4 µM; in data set [3] it was 0.24 µM; in [4] it was 0.42 µM. In data set [5], this molecule returned a half-life of more than 24 h.
`COc1ccc(CCNC(=O)CCC(=O)O[C@@H]2c3cc4c(cc3[C@H](c3cc(OC)c(OC)c(OC)c3)[C@@H]3C(=O)OC[C@H]32)OCO4)cc1`: the IC50 in data set [1] is more than 4 µM; in [2], more than 4 µM; in data set [3], 0.079 µM; in [4] it was 0.13 µM. The half-life in [5] is more than 24 h.
As for `COc1ccc2cc([C@@H](C)C(=O)NCCCCNC(=O)CCC(=O)O[C@@H]3c4cc5c(cc4[C@H](c4cc(OC)c(OC)c(OC)c4)[C@@H]4C(=O)OC[C@H]43)OCO5)ccc2c1`, the IC50 in data set [1] was more than 4 µM; in data set [2] it was more than 4 µM; in data set [3], 0.33 µM; in data set [4] it was 0.43 µM. This molecule also gave a half-life in data set [5] of more than 24 h.
For the molecule `COc1ccc2c(c1)c(CC(=O)NCCOC(=O)CCC(=O)O[C@@H]1c3cc4c(cc3[C@H](c3cc(OC)c(OC)c(OC)c3)[C@@H]3C(=O)OC[C@H]31)OCO4)c(C)n2C(=O)c1ccc(Cl)cc1`, the IC50 turned out to be 0.86 µM in data set [3] and 1.3 µM in data set [4]. Moreover, the inhibition entry in data set [6] and in data set [7] was “inactive” throughout. Further, the half-life in data set [5] was more than 24 h.
Take `COc1ccc2c(c1)c(CC(=O)O)c(C)n2C(=O)c1ccc(Cl)cc1` [INDOMETHACIN]: the IC50 in data set [8], in data set [3] and in data set [4] was more than 50 µM each time. For the same molecule, in data set [5], the half-life is more than 24 h.
`COc1ccc2c(c1)c(CC(=O)NCCCCNC(=O)CCC(=O)O[C@@H]1c3cc4c(cc3[C@H](c3cc(OC)c(OC)c(OC)c3)[C@@H]3C(=O)OC[C@H]31)OCO4)c(C)n2C(=O)c1ccc(Cl)cc1`: the inhibition result in data set [9] and in [10] was “Active” throughout. Further, the results for the IC50 in data set [2], in data set [3] and in [4] were 0.295 µM, 0.16 µM and 0.12 µM, respectively. Besides, the inhibition result in data set [6] and in [7] was “inactive” each time. The half-life in data set [5] was more than 24 h.
Regarding `COc1cc([C@H]2c3cc4c(cc3[C@@H](OC(=O)CCC(=O)NCCCCNC(=O)[C@@H](C)c3ccc(-c5ccccc5)c(F)c3)[C@@H]3COC(=O)[C@@H]23)OCO4)cc(OC)c1OC`, the half-inhibitory concentration (IC50) in data set [1] is more than 4 µM; in data set [2], more than 4 µM; in data set [3], 0.18 µM; in data set [4], 0.18 µM. Also, the half-life in data set [5] was more than 24 h.
In the case of `COc1cc([C@@H]2c3cc4c(cc3[C@H](O)[C@H]3COC(=O)[C@H]23)OCO4)cc(OC)c1OC` [PODOFILOX], the IC50 in data set [1] is more than 4 µM; in [2] it was more than 4 µM; in [3], 0.017 µM; in data set [4], 0.018 µM. For the same molecule, in [5], the half-life was more than 24 h.
Consider `CO[C@@H](/C(C)=C/C=C/C(C)=C/c1coc(C)n1)[C@@H](C)[C@@H]1C[C@H](O)[C@@]2(C)O[C@@H]2/C=C/[C@@H](C)[C@H]2C[C@H](CC(=O)O2)C[C@@H]2O[C@H]2C(=O)O1` [RHIZOXIN], for which the half-inhibitory concentration (IC50) came out at 0.35 µM in [3] and 0.34 µM in data set [4]. In addition, the inhibition result in data set [11] and in [12] was “Active” throughout. Further, the half-life in data set [5] was more than 24 h.

(Values after ChEMBL document CHEMBL1154925 (Bioorg Med Chem Lett, 2010).)
